Reference: US20080090878A1, “Pharmaceutical combinations and their use in treating gastrointestinal and abdominal viscera disorders” (priority 1999, published 2008)

System: Guinea-Pig Colon Entero-Chromaffin Cells
Test: Release of serotonin (5HT) from guinea-pig colon entero-chromaffin cells, organ bath, HPLC
Format: cell-based, guinea-pigs
Conditions: guinea-pig proximal colon
Experimental: Male guinea-pigs, 200-400 g are stunned and bled. Segments of the proximal colon are removed and suspended, as described by Trendelenburg in Arch. Exp. Path. Pharmakol., 81, 55-129 (1917), in a 20 ml organ bath. The tissue is bathed with a modified Krebs solution (NaCl 118.6; CaCl2 2.7; KCl 4.7; KH2 PO4 1.2; MgSO4 0.1; NaHCO3 25.0; and glucose 5.6 mM), maintained at 37° C. 5-HT is determined by high-performance liquid chromatography with electro-chemical detection. […] To individual organ baths the following agents are added prior to the addition of physostigmine (1 microM): 1) no addition (negative control), 2) atropine (0.2 microM) (positive control), 3) hexamethonium (100 microM) (positive control), 4) tegaserod, 5) cilansetron, 6) prucalopride, 7) A-85380, 8) fedotozine, 9) chlordiazepoxide, 10) CGP49823, 11) buproprion, 12) fluvoxamine, 13) tegaserod plus cilansetron, 14) tegaserod plus prucalopride, 15) tegaserod plus A-85380, 16)-tegaserod plus fedotozine, 17) tegaserod plus chlordiazepoxide, 18) tegaserod plus SDZ-NKT-343, 19) tegaserod plus buproprion, or 20) tegaserod plus fluvoxamine. The combination of agents results in an amplification of the reduction of physostigmine-induced serotonin outflow as compared to any of the agents alone.

SMILES	luminal outflow of 5-HT (0.2 microM)	luminal outflow of 5-HT (100 microM)
CN1[C@@H]2CC[C@H]1C[C@@H](OC(=O)C(CO)c1ccccc1)C2 (some centres unmarked) [atropine]	significantly reduced	
C[N+](C)(C)CCCCCC[N+](C)(C)C [hexamethonium]		significantly reduced
